Assay results taken from patent US20110251188A1, “ACENAPHTHO HETEROCYCLE COMPOUNDS, CYCLODEXTRIN INCLUSION COMPOUNDS AND COMPLEXES, AND USES IN THE MANUFACTURES OF BH3 PROTEIN ANALOGUE, BCL-2 FAMILY PROTEIN INHIBITORS THEREOF” (DALIAN UNIVERSITY OF TECHNOLOGY, priority 2008, published 2011).
≈ marks a conversion by molar mass, not a printed value.

Experiments:
GST-Bcl-2 protein = molecular target: T1, GST-Bcl-2 protein (Homo sapiens, UniProt P10415); assay: fluorescence polarization assay, competitive binding against FAM-Bid peptide; conditions: Table 3; FAM-Bid competition; table does not say whether Bcl-2 or Mcl-1; read-out: Binding constant
T1 construct: fused on or other part: GST tag on Bcl-2
Description: A Bid BH3 peptide (amino acids: 79-99: […]) having 21 amino acids was synthesized and marked with 6-carboxyfluorescein N-succinimidyl ester (FAM) as fluorescent tag (FAM-Bid) at the N-terminal. The reaction system used in the competitive binding experiment was GST-Bcl-2 protein (40 nM) or Mcl-1 protein, which was dissolved in the reaction buffer (100 mM K3PO4, pH 7.5; 100 μg/ml bovine γ albumin; 0.02% sodium azide) together with FAM-Bid polypeptide (5 nM). In a 96-well plate, 100 μL of the reaction system was added into each well. Then 1 μL different concentration of 3-thiomorpholinyl-8-oxo-8H-acenaphtho[1,2-b]pyrrole-9-carbonitrile mother solution to be detected dissolved in DMSO was added thereinto until the final concentration met the experimental design requirements. Meanwhile, two control groups were established, one with the reaction system only contains Bcl-2 or Mcl-1 and FAM-Bid (equivalent to 0% inhibition rate), the other with the reaction system only containing FAM-Bid peptide. After 4 hours of incubation, the 96-well plate was detected by enzyme-labelled meter. The fluorescent polarization value (mP) was tested at […]. Ki value was deduced according to calculation formula. The competitive binding constant between the compound and Bcl-2 was 310 nM.

[1] = molecular target: T2, interaction between Bcl-2 and Bax (Homo sapiens, UniProt P10415); assay: intracellular fluorescence polarization energy transfer (FRET), Hela cells transfected with Bcl-2-CFP and Bax-YFP; type: cell-based; conditions: for Time for which the compound interfered with the interaction between Bcl-2 and Bax: goes with the concentration of E11; for Concentration at which the compound interfered with the interaction between Bcl-2 and Bax: goes with the time of E12
T2 construct: expressed in transfected cells; host or cells: Hela cells
Description: 24 hours later (please refer to FIG. 2), the cells were washed with PBS for three times. The fluorescence value was detected by GENIOS fluorescence enzyme-labelled meter (TECAN, Swiss). In time-dependent experiment, the transfected cells were inoculated in a 6-well plate, after that, 40 μM of the compound was added thereinto. 3, 6 and 24 hours later (FIG. 3), the fluorescence intensities were detected by plate reader. As for the cell group in which only Bcl-2-CFP plasmid was transfected, the values at 475 nm emission wave length and 433 nm excitation wave length were recorded. As for the cell group in which only Bax-YFP plasmid was transfected, the values at 527 nm emission wave length and 505 nm excitation wave length were recorded. […] The ratio of fluorescence intensity at 527 nm and 475 nm emission wave lengths was FRET. The FRET for the control group in which the plasmid was solely transfected was set as 1.0. […] The cellular vitality was detected by MTT method.
Wherein the concentration and time meant that the detected compound interfered with the interaction between Bcl-2 and Bax at the concentration for the time period.

Bax protein = assay: co-localization between Bax protein and chondriosome, Bax-YFP transfected MCF-7 cells; type: cell-based; conditions: for Time for which the compound drove the BAX to shift towards the chondriosome: goes with the concentration of E14; for Concentration at which the compound drove the BAX to shift towards the chondriosome: goes with the time of E15
Description: 5 ng of Bax-YFP plasmid was transfected into MCF-7 cells by using calcium phosphate coprecipitation method, 24 hours later, the cells were inoculated in a 6-well plate (0.2×10^6 cells/well), and 10 μM of the compound 3-thiomorpholinyl-8-oxo-8 H-acenaphtho[1,2-b]pyrrole-9-carbonitrile to be detected was added thereinto. 6 hours later, the cells were washed with PBS and hatched away from light with 50 nM Mito Tracker Red CMXRos (chondriosome specific probes; red) for 10 minutes. Then the cells were washed with PBS for three times, and the fluorescent image was scanned with Radiance2000 laser confocal microscopy (Bio-Rad, USA). Meanwhile, dual channel scanning was carried out, one channel was used to scan the green fluorescence of Bax-YFP, and the other channel was used to scan the red fluorescence of the CMXRos probe for indicating the chondriosome. […] When the Bax protein was localized on the chondriosome, the green and red fluorescence was superimposed into orange, as shown in FIG. 4.
Other 8 compounds were detected by the same experimental method as described above. […] Wherein the concentration and time meant that the detected compound simulated the BH3-only protein and driven the BAX to shift towards the chondriosome at the concentration for the time period.

MCF-7 cells = assay: cytotoxicity depending on BAX/BAK, MTT, MCF-7 cells with or without BAX/BAK interfering plasmid; type: cell-based
Description: 3 ng of BAX/BAK interfering plasmid was transfected into MCF-7 cells by using calcium phosphate coprecipitation method, 24 hours later, the cells were collected. The expressions after the BAX and BAK proteins interfered with RNA was detected by Western, and the cell groups without plasmid transfection were treated similarly and were set as the control group. The transfected cells were inoculated in a 96-well plate (1×10^5 cells/well), the control experiment of the cell group without plasmid transfection was carried out in parallel. The compound 3-thiomorpholinyl-8-oxo-8 H-acenaphtho[1,2-b]pyrrole-9-carbonitrile to be detected was added thereinto according to the concentration gradient designed before the experiment. 48 hours later, the cellular vitality was detected by MTT. The experimental results were shown in FIG. 6, Gossypol as nonspecific BH3 analogue was treated in parallel.

Mcl-1 = assay: Western blotting, inhibition (downregulation) of Mcl-1 in tumor cells, Example 23; type: cell-based; conditions: for inhibition against Mcl-1: Western blotting, tumor cells
Description: (§1) The interest protein was detected by the corresponding antibody. The expression of the interest protein in the cells was detected by horseradish peroxidase-labeled secondary antibodies in combination with ECL coloration method. […] The concentration of the protein bands in the Western images were carried out semiquantitative analysis and normalization treatment with KODAK Gel Logic 1500 imaging system software.

Bcl-2 = assay: Western blotting, inhibition (downregulation) of Bcl-2 in tumor cells, Example 23; type: cell-based; conditions: for inhibition against Bcl-2: Western blotting, tumor cells
Description: as §1

[2] = phase solubility experiment (solubility in water before and after cyclodextrin inclusion or complexation); conditions: thermodynamic from solid, Solubility of compounds, Table 1, compound per se, before inclusion

T2 sequence (P10415 whole entry): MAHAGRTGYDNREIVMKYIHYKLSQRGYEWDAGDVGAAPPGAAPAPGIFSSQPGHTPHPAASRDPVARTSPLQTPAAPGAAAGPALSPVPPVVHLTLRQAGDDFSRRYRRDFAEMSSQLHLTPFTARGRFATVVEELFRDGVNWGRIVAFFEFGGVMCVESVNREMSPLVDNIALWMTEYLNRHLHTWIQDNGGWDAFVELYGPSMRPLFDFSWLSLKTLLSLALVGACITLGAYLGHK
T1 sequence (P10415 whole entry, the tested form may be a part): as the sequence (P10415 whole entry) above

N#CC1=C2C(=NC1=O)c1c(Sc3ccc(Br)cc3)ccc3c(Sc4ccc(Br)cc4)ccc2c13 [3,6-di(4-bromophenylthio)-8-oxo-8H-acenaphtho[1,2-b]pyrrole-9-carbonitrile]
Ki (GST-Bcl-2 protein): 5 nM | Time for which the compound interfered with the interaction between Bcl-2 and Bax [1]: 2 h | Concentration at which the compound interfered with the interaction between Bcl-2 and Bax [1]: 1.0 µM | Time for which the compound drove the BAX to shift towards the chondriosome (Bax protein): 6 h | Concentration at which the compound drove the BAX to shift towards the chondriosome (Bax protein): 5.0 µM | dependence of cytotoxicity on BAX/BAK (MCF-7 cells): absolute dependence on BAX/BAK | downregulation of Mcl-1 protein, semiquantitative analysis (band concentration, control = 1) (Mcl-1; 6 hours): 0.99 | downregulation of Mcl-1 protein, semiquantitative analysis (band concentration, control = 1) (Mcl-1; 12 hours): 0.99 | downregulation of Mcl-1 protein, semiquantitative analysis (band concentration, control = 1) (Mcl-1; 18 hours): 0.70 | downregulation of Mcl-1 protein, semiquantitative analysis (band concentration, control = 1) (Mcl-1; 24 hours): 0.57 | inhibition against Mcl-1 (Mcl-1): had the inhibition against Bcl-2 and Mcl-1 proteins | downregulation of Bcl-2 protein, semiquantitative analysis (band concentration, control = 1) (Bcl-2; 2 hours): 0.68 | downregulation of Bcl-2 protein, semiquantitative analysis (band concentration, control = 1) (Bcl-2; 6 hours): 0.49 | inhibition against Bcl-2 (Bcl-2): had the inhibition against Bcl-2 and Mcl-1 proteins | solubility [2]: 0.16 µM (≈ 0.0967 µg/mL)

N#CC1=C2C(=NC1=O)c1cccc3cccc2c13 [8-oxo-8H-acenaphtho[1,2-b]pyrrole-9-carbonitrile]
Ki (GST-Bcl-2 protein): 0.3 nM | Time for which the compound interfered with the interaction between Bcl-2 and Bax [1]: 2 h | Concentration at which the compound interfered with the interaction between Bcl-2 and Bax [1]: 0.1 µM | Time for which the compound drove the BAX to shift towards the chondriosome (Bax protein): 3 h | Concentration at which the compound drove the BAX to shift towards the chondriosome (Bax protein): 1.0 µM | dependence of cytotoxicity on BAX/BAK (MCF-7 cells): absolute dependence on BAX/BAK | downregulation of Mcl-1 protein, semiquantitative analysis (band concentration, control = 1) (Mcl-1; 6 hours): 0.99 | downregulation of Mcl-1 protein, semiquantitative analysis (band concentration, control = 1) (Mcl-1; 12 hours): 0.99 | downregulation of Mcl-1 protein, semiquantitative analysis (band concentration, control = 1) (Mcl-1; 18 hours): 0.48 | downregulation of Mcl-1 protein, semiquantitative analysis (band concentration, control = 1) (Mcl-1; 24 hours): 0.21 | inhibition against Mcl-1 (Mcl-1): had the inhibition against Bcl-2 and Mcl-1 proteins | downregulation of Bcl-2 protein, semiquantitative analysis (band concentration, control = 1) (Bcl-2; 2 hours): 0.78 | downregulation of Bcl-2 protein, semiquantitative analysis (band concentration, control = 1) (Bcl-2; 6 hours): 0.69 | inhibition against Bcl-2 (Bcl-2): had the inhibition against Bcl-2 and Mcl-1 proteins | solubility [2]: 0.12 µM (≈ 0.0276 µg/mL)

N#CC1=C2C(=NC1=O)c1c(Sc3ccc(N)cc3)ccc3c(Sc4ccc(N)cc4)ccc2c13 [3,6-di(4-aminophenylthio)-8-oxo-8 H-acenaphtho[1,2-b]pyrrole-9-carbonitrile]
Ki (GST-Bcl-2 protein): 7 nM | Time for which the compound interfered with the interaction between Bcl-2 and Bax [1]: 2 h | Concentration at which the compound interfered with the interaction between Bcl-2 and Bax [1]: 1.0 µM | Time for which the compound drove the BAX to shift towards the chondriosome (Bax protein): 6 h | Concentration at which the compound drove the BAX to shift towards the chondriosome (Bax protein): 5.0 µM | dependence of cytotoxicity on BAX/BAK (MCF-7 cells): absolute dependence on BAX/BAK | downregulation of Mcl-1 protein, semiquantitative analysis (band concentration, control = 1) (Mcl-1; 6 hours): 0.99 | downregulation of Mcl-1 protein, semiquantitative analysis (band concentration, control = 1) (Mcl-1; 12 hours): 0.99 | downregulation of Mcl-1 protein, semiquantitative analysis (band concentration, control = 1) (Mcl-1; 18 hours): 0.68 | downregulation of Mcl-1 protein, semiquantitative analysis (band concentration, control = 1) (Mcl-1; 24 hours): 0.33 | inhibition against Mcl-1 (Mcl-1): had the inhibition against Bcl-2 and Mcl-1 proteins | downregulation of Bcl-2 protein, semiquantitative analysis (band concentration, control = 1) (Bcl-2; 2 hours): 0.72 | downregulation of Bcl-2 protein, semiquantitative analysis (band concentration, control = 1) (Bcl-2; 6 hours): 0.43 | inhibition against Bcl-2 (Bcl-2): had the inhibition against Bcl-2 and Mcl-1 proteins | solubility [2]: 0.31 µM (≈ 0.148 µg/mL)

N#CC1=C2C(=NC1=O)c1cccc3c(Sc4ccc(Br)cc4)ccc2c13 [3-(4-bromophenylthio)-8-oxo-8H-acenaphtho[1,2-b]pyrrole-9-carbonitrile]
Ki (GST-Bcl-2 protein): 17 nM | Time for which the compound interfered with the interaction between Bcl-2 and Bax [1]: 2 h | Concentration at which the compound interfered with the interaction between Bcl-2 and Bax [1]: 0.5 µM | Time for which the compound drove the BAX to shift towards the chondriosome (Bax protein): 6 h | Concentration at which the compound drove the BAX to shift towards the chondriosome (Bax protein): 1.0 µM | dependence of cytotoxicity on BAX/BAK (MCF-7 cells): absolute dependence on BAX/BAK | downregulation of Mcl-1 protein, semiquantitative analysis (band concentration, control = 1) (Mcl-1; 6 hours): 0.99 | downregulation of Mcl-1 protein, semiquantitative analysis (band concentration, control = 1) (Mcl-1; 12 hours): 0.99 | downregulation of Mcl-1 protein, semiquantitative analysis (band concentration, control = 1) (Mcl-1; 18 hours): 0.64 | downregulation of Mcl-1 protein, semiquantitative analysis (band concentration, control = 1) (Mcl-1; 24 hours): 0.31 | inhibition against Mcl-1 (Mcl-1): had the inhibition against Bcl-2 and Mcl-1 proteins | downregulation of Bcl-2 protein, semiquantitative analysis (band concentration, control = 1) (Bcl-2; 2 hours): 0.66 | downregulation of Bcl-2 protein, semiquantitative analysis (band concentration, control = 1) (Bcl-2; 6 hours): 0.35 | inhibition against Bcl-2 (Bcl-2): had the inhibition against Bcl-2 and Mcl-1 proteins

N#CC1=C2C(=NC1=O)c1c(Sc3ccc(N)cc3)ccc3cccc2c13 [6-(4-aminophenylthio)-8-oxo-8H-acenaphtho[1,2-b]pyrrole-9-carbonitrile]
Ki (GST-Bcl-2 protein): 20 nM | Time for which the compound interfered with the interaction between Bcl-2 and Bax [1]: 2 h | Concentration at which the compound interfered with the interaction between Bcl-2 and Bax [1]: 0.2 µM | Time for which the compound drove the BAX to shift towards the chondriosome (Bax protein): 6 h | Concentration at which the compound drove the BAX to shift towards the chondriosome (Bax protein): 5.0 µM | dependence of cytotoxicity on BAX/BAK (MCF-7 cells): absolute dependence on BAX/BAK | downregulation of Mcl-1 protein, semiquantitative analysis (band concentration, control = 1) (Mcl-1; 6 hours): 0.99 | downregulation of Mcl-1 protein, semiquantitative analysis (band concentration, control = 1) (Mcl-1; 12 hours): 0.99 | downregulation of Mcl-1 protein, semiquantitative analysis (band concentration, control = 1) (Mcl-1; 18 hours): 0.55 | downregulation of Mcl-1 protein, semiquantitative analysis (band concentration, control = 1) (Mcl-1; 24 hours): 0.27 | inhibition against Mcl-1 (Mcl-1): had the inhibition against Bcl-2 and Mcl-1 proteins | downregulation of Bcl-2 protein, semiquantitative analysis (band concentration, control = 1) (Bcl-2; 2 hours): 0.79 | downregulation of Bcl-2 protein, semiquantitative analysis (band concentration, control = 1) (Bcl-2; 6 hours): 0.49 | inhibition against Bcl-2 (Bcl-2): had the inhibition against Bcl-2 and Mcl-1 proteins | solubility [2]: 0.28 µM (≈ 0.099 µg/mL)
